# In patent US7560105B1, “Dendritic cells activated in the presence of glucocorticoid hormones are capable of suppressing antigen-specific T cell responses” (Leids Universitair Medisch Centrum, priority 1999, dated 2009):
# Experiments:
# [1] = tested on: human monocyte-derived DC; assay: DC surface phenotype by flow cytometry after CD40 ligation; format: cell-based; conditions: DEX titration, data not shown
# Description: Immature DC were generated from peripheral blood monocyte precursors (PBMC). Human PBMC from healthy donors, isolated through Ficoll-Hypaque density centrifugation were plated at 1.5×10^7 per well in 6-well plates (Costar Corp., Cambridge, Mass.) in RPMI 1640 (Life Technologies, Paisley, Scotland) supplemented with 2 mM glutamine, 100 UI/ml penicillin and 10% FCS. After 2 h at 37° C., the nonadherent cells were removed and the adherent cells were cultured in medium containing 500 U/ml IL-4 (Pepro Tech Inc. Rocky Hill, N.J.) and 800 U/ml GM-CSF (kindly provided by Dr S. Osanto, LUMC, Leiden, NL) for a total of 7 days.
# Activation of DC though CD40 was performed with a fusion protein made of the extracellular domain of human CD40L and of the murine CD8a chain (CD 8-CD40L). The CD8-CD40L cDNA described by Garrone et al. (23) was transferred into an eukaryotic expression vector containing the hygromycin resistance gene and used for the generation of stably transfected Chinese Hamster Ovary (CHO) cells. […] DC were incubated at 5×10^5/ml/well in a 24-well plate (Costar Corp., Cambridge, Mass.) and activated in the presence of 1/10 CD8-CD40L supernatant. Cells and supernatants were analyzed after 48 h. […]
# Cells were stained on ice with FITC or PE-conjugated mouse monoclonal antibodies (MoAb) for 30 min in PBS 1% FCS and were analyzed on a FACScan® (Becton Dickinson, San Jose, Calif.). […]
# [2] = tested on: human monocyte-derived DC; assay: Cytokine detection by ELISA in DC culture supernatants; format: cell-based; conditions: CD40 triggering of DEX-treated DC vs untreated
# Description: Data are representative from 6 independent experiments.
# Activation of DC though CD40 was performed with a fusion protein made of the extracellular domain of human CD40L and of the murine CD8a chain (CD 8-CD40L). The CD8-CD40L cDNA described by Garrone et al. (23) was transferred into an eukaryotic expression vector containing the hygromycin resistance gene and used for the generation of stably transfected Chinese Hamster Ovary (CHO) cells. […] DC were incubated at 5×10^5/ml/well in a 24-well plate (Costar Corp., Cambridge, Mass.) and activated in the presence of 1/10 CD8-CD40L supernatant. Cells and supernatants were analyzed after 48 h. Of note, control supernatants obtained from untransfected CHO cells or from CHO cells transfected with the CD8a cDNA lacked DC activating functions and were similar to culture medium.
# Culture supernatants were analyzed in serial two-fold dilutions in duplicate. IL-12p70 was detected using a solid phase sandwich ELISA kit (Diaclone Research, Besancon, France) (sensitivity 3 pg/ml). For IL-12p40 and IFN-g detection, capture MoAb and polyclonal biotinylated detection Ab were obtained from Peter van de Meijde (BPRC, Rijswijk, NL) (sensitivity 10 pg/ml). IL-10 was detected using the Pelikine compact human IL-10 ELISA kit (CLB, Amsterdam, NL) (sensitivity 3 pg/ml).
compound,measurement,setting,value
"C[C@@H]1C[C@H]2[C@@H]3CCC4=CC(=O)C=C[C@]4(C)[C@@]3(F)[C@@H](O)C[C@]2(C)[C@@]1(O)C(=O)CO [DEX, dexamethasone]",CD40-mediated phenotypic changes,[1]; 10^-9 M,no effect
same,CD40-mediated phenotypic changes,[1]; 10^-10,no effect
same,enhancement of IL-10 production,[2],up to 50 fold
same,reduction of IL-12p40 production,[2],up to 100 fold
